Data: patent publication US20100113608A1, “Tryptase Enzyme Inhibiting Aminothiophenols” (priority 2008, published 2010)
pIC50: −log10 of the molar value.

How the values were obtained:
[1] = Pharmacokinetic analysis: serum and urine by DART TOF-MS after a 100 mg lozenge; format: in vivo, human; conditions: humans
Protocol: Five healthy consenting female adults ranging in age from 23 to 57 were took diets free of flavonoids and any NSAIDs. A certified individual collected blood samples at several time intervals between 0 and 480 min after compounds of the present invention were ingested in a mixture. Immediately after the time zero blood samples were collected, a single 100 mg dose of the composition was administered as a lozenge. Blood samples were handled with approved protocols and precautions, centrifuged to remove cells and the serum fraction was collected and frozen. Blood was not treated with heparin to avoid any analytical interference. Urine samples were collected from the same five subjects on a time course (0 to 8 h). The cells were removed from the blood samples by centrifugation and the serum was collected. Serum samples were prepared for DART TOF-MS analysis by extraction with an equal volume of neat ethanol (USP) to minimize background of proteins, peptides, and polysaccharides present in serum. The ethanol extract was centrifuged for 10 min at 4° C., the supernatant was removed, concentrated to 200 μL volume, and 50 μL of an internal standard was added. Urine samples were not treated and used directly for DART TOF-MS. DART TOF-MS analyses were conducted as described above.

tryptase enzyme = biological target: T1, tryptase enzyme (Homo sapiens, UniProt P20231); test: Tryptase enzyme inhibition (cleavage of tosyl-gly-pro-lys-pNA, absorbance at 405 nm); format: biochemical; conditions: 2 h at 37° C.; relative to controls
T1 construct: purchased Millipore Inc., Westbury, Mass
T1 sequence (P20231 31-275): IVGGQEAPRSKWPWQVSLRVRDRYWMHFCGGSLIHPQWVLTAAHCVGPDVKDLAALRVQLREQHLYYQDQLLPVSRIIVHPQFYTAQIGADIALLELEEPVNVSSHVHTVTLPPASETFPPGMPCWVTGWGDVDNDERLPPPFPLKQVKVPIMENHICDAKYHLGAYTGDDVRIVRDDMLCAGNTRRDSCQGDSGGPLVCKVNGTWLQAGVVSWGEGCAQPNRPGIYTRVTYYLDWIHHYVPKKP
Protocol: A. Tryptase Enzyme Inhibition
Tryptase activity was determined by monitoring the production of chromophore p-nitroaniline (pNA) generated by the cleavage of tosyl-gly-pro-lys-pNA by the tryptase enzyme according to the manufacturer's protocol (Millipore Inc., Westbury, Mass.). In a 96-well format, 10 μL of tryptase was added to 10 μL of sample, followed by 20 μL of tosyl-gly-pro-lys-pNA and 160 μL of 1× reaction buffer and incubated for 2 h at 37° C. After the incubation, absorbance at 405 nm was measured in each well using a Tecan M200 microplate reader.

[2] = in a mixture, slow-dissolve lozenge

CCCCCN(c1ccc(N)cc1)c1ccc(S)cc1.Cl [III, 4-[(4-Amino-phenyl)-pentyl-amino]benzenethiol hydrochloride salt]
Time to appearance in urine [1, 2]: ≤ 1 h | Time to first appearance in bloodstream (serum) [1, 2]: ≤ 10 min | Time up to which present in the blood post-ingestion [1, 2]: up to 360 min | Time up to which present in urine post-ingestion [1, 2]: up to 8 h | Detection in blood at 480 min after ingestion ([1]; lozenge, 480 min): not detected | pIC50 (tryptase enzyme): 3.31
